Test results published in patent EP0549352B1, “Tricyclic compounds as angiotensin II antagonists” (KYOWA HAKKO KOGYO CO., LTD., priority 1991, dated 1993).

Columns and labels:
AII receptor = target: T1, AII receptor (Bos taurus, UniProt P25104); assay: Receptor binding test using bovine adrenal cortex ([125I]AII binding); conditions: test compound 0.1 µM; receptor binding of [125I]AII (2.5 × 10^-10M); bovine adrenal cortex membranes; room temperature, 2 hours; read-out: Inhibition Rate (%)
T1 construct: Tissue of bovine adrenal cortex was finely cut and suspended; from tissue; host or cells: bovine adrenal cortex membrane fraction
T1 sequence (P25104 1-359): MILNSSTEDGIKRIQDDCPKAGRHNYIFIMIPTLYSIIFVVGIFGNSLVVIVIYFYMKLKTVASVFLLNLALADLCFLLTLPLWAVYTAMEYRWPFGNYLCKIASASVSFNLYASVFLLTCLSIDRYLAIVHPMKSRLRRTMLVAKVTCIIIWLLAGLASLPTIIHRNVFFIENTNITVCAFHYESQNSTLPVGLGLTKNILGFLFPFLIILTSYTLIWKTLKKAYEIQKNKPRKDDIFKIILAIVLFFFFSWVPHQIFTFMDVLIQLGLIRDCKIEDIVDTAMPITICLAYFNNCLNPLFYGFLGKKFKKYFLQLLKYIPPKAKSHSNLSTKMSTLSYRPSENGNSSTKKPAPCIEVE
Procedure: Receptor binding test using bovine adrenal cortex
Tissue of bovine adrenal cortex was finely cut and suspended in a 0.25M sucrose solution containing NaHCO3, ethylenediaminetetraacetic acid (EDTA), leupepsin, pepstatin A and phenylmethanesulfonyl fluoride, followed by homogenization. The homogenate was centrifuged at 3,000 rpm for 10 minutes and the supernatant was centrifuged at 9,000 rpm. Then, the supernatant was further centrifuged at 30,000 rpm for 60 minutes and the precipitate was suspended in NaHCO3-EDTA solution, followed by centrifugation at 30,000 rpm for 60 minutes. The resulting precipitate was suspended in a phosphate buffer and the suspension was used for the binding test as an AII receptor source.
To a test compound or a solvent were added 250 µl of the AII receptor solution prepared above, 250 µl of Tris 50 mM buffer containing 0.2% bovine serum albumin (BSA), and 20 µl of [^125I]AII (2.5 × 10^-10M). The mixture was allowed to stand at room temperature for 2 hours and then filtered through a glass fiber filter (GF/B Wattman). The filter was placed in a test tube and the radioactivity was measured using a gamma-counter.
The inhibitory activity (inhibition rate) of the test compound (0.1 µM) against the receptor binding of [^125I]AII was calculated by the following equation. Inhibition Rate (%) =(1-((Binding Amount in the Presence of a Test Compound)-(Nonspecific Binding Amount))/((Total Binding Amount)-(Nonspecific Binding Amount)))× 100 [formula]
The binding amount in the presence of a test compound is the amount of radioactivity of [^125I]AII bound in the presence of a test compound (0.1 µM).
The total binding amount is the amount of radioactivity of [^125I]AII bound in the absence of a test compound.
The nonspecific binding amount is the amount of radioactivity of [^125I]AII bound in the presence of 1 µM AII.

[1] = tested on: hypertensive response to AII; assay: Inhibition test against hypertensive response to AII; assay type: in vivo, Male Wistar rats; conditions: test compound 1 mg/kg orally; 0.3 µg/kg AII intravenously one hour after dosing; average artery blood pressure
Procedure: Inhibition test against hypertensive response to AII
Male Wistar rats were anesthetized with pentobarbital. A cannula for blood pressure measurement was inserted from the right femoral artery into the abdominal aorta and another cannula for AII injection was inserted into the right femoral vein. The cannulae were passed under skin and fixed after coming out of the back, and the blood pressure was recorded on a polygraph from the artery cannula using a voltage transformer.
On the day after operation, 0.3 µg/kg AII was intravenously injected into each animal and the change in the average artery blood pressure was examined as the control pressor response. Then, a test compound (1 mg/kg) was orally administered and after one hour, 0.3 µg/kg AII was injected again, followed by examination of the pressor response. The inhibitory effect of the test compound against the control pressor response was determined as the inhibition rate.

inhibition at 0.1 µM (AII receptor): 86%
Structure (SMILES): CCc1nc2c(C)cc(C)nc2n1Cc1ccc2c(c1)CCc1ccccc1N2Cc1nnn[nH]1 [Compound 32, 2-(5,7-Dimethyl-2-ethyl-3H-imidazo[4,5-b]pyridin-3-yl)methyl-5-(1H-tetrazol-5-yl)methyl-5H-10,11-dihydrodibenz[b,f]azepine]
inhibition rate against the control pressor response [1]: 45%
